Reference: patent publication US20260250291A1, “INHIBITORS OF FGFR2 AND FGFR3 AND USES THEREOF” (Insilico Medicine IP Limited, priority 2023, published 2026)

Key:
[1] = target: T1, FGFR1 (Homo sapiens, UniProt P11362); assay: FGFR biochemical assay (LanthaScreen TR-FRET), FGFR1; conditions: ATP 28 μM, FGFR1 0.01 nM
T1 construct: purchased Carna
Experimental: (§1) The following procedure was used to test the compounds described herein: • Dilute the test compounds to 100× of the final desired highest concentration in reaction by 100% DMSO. • Perform a serial dilution in a 384-well source plate by transferring 15 μL to 30 μL of […] DMSO in the next well and so forth for a total of 10 concentrations. • Dispense 100 nL of compound solution each well from the source plate to a 384-well assay plate in duplicates by Echo (Labcyte). • Prepare a solution of 2× FGFR enzyme (Carna) in kinase buffer (50 mM HEPES, pH 7.5, 10 mM MgCl2, 4 mM DTT, 0.01% Tween-20 and 0.01% BSA). The final concentration of FGFR1/2/3/4 is 0.01. 0.01, 0.1 and 1 nM, respectively. • Add 5 μL of kinase solution to each well of the compound-containing assay plate, except for low control wells without enzyme (add 5 μL of 1× kinase buffer instead). • Shake the plate and incubate at room temperature for 10 minutes (for Example 1) (or 60 min for the remaining Examples in Table 4). • Prepare the substrate solution of Fluorescein-Poly GT (Invitrogen) and ATP (Sigma) in 1× kinase reaction buffer at 2-fold of the final concentration of each reagent desired in the assay (final concentration of ATP is 28, 22, 35 and 238 μM for FGFR1/2/3/4 respectively; Fluorescein-Poly GT is fixed at 20 nM). • Add 5 μL of substrate solution to each well of the assay plate to initiate the kinase reaction. • Shake the plate shortly and incubate at room temperature for 30 minutes. • Prepare 2× detection solution in Antibody Dilution Buffer (LanthaScreen® Tb—PY20 Antibody Kit, Invitrogen). • Add 10 μL of detection solution to each well of the assay plate to stop the reaction. • Mix briefly with centrifuge and incubate at room temperature for 60 minutes before reading on a microplate reader. • Collect data on Envision with excitation at 340 nm and emission at 520 nm and 495 nm. • Calculate Ratio of RFU 520 nm/RFU 495 nm. Convert Ratio values to percent inhibition values (Percent inhibition=(max−sample Ratio)/(max−min)*100) where “min” means the Ratio of no enzyme control and “max” means the Ratio of DMSO control. • Data are analyzed and curve fitting is performed by XLFit Excel add-in version 5.4.0.8. The IC50 calculation equation is: Y=Bottom+(Top−Bottom)/(1+(IC50/X)^HillSlope.

[2] = target: T2, FGFR2 (Homo sapiens, UniProt P21802); assay: FGFR biochemical assay (LanthaScreen TR-FRET), FGFR2; conditions: ATP 22 μM, FGFR2 0.01 nM
T2 construct: purchased Carna
T2 sequence (P21802 22-821): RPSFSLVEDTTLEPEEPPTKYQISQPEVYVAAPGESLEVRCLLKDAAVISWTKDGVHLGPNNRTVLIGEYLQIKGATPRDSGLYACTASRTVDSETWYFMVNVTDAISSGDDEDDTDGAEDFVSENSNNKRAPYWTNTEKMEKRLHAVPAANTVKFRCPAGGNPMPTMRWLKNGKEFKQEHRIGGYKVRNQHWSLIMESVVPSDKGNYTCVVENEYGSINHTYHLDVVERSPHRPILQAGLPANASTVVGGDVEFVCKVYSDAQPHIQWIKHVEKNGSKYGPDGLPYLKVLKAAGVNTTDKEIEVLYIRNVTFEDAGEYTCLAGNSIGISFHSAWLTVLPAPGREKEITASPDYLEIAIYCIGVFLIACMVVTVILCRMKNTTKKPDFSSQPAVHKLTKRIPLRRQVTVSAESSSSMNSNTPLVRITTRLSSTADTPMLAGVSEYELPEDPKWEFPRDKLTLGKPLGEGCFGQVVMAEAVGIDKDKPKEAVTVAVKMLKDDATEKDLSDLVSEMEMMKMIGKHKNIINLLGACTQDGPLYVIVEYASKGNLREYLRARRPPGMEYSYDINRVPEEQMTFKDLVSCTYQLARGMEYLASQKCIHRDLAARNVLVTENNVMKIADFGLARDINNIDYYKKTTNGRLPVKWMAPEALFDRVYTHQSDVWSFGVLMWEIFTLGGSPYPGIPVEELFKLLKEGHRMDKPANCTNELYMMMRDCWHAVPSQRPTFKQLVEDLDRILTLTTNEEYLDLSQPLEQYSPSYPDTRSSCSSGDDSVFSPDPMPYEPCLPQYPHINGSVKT
Experimental: as §1

[3] = target: T3, FGFR3 (Homo sapiens, UniProt P22607); assay: FGFR biochemical assay (LanthaScreen TR-FRET), FGFR3; conditions: ATP 35 μM, FGFR3 0.1 nM
T3 construct: purchased Carna
T3 sequence (P22607 23-806): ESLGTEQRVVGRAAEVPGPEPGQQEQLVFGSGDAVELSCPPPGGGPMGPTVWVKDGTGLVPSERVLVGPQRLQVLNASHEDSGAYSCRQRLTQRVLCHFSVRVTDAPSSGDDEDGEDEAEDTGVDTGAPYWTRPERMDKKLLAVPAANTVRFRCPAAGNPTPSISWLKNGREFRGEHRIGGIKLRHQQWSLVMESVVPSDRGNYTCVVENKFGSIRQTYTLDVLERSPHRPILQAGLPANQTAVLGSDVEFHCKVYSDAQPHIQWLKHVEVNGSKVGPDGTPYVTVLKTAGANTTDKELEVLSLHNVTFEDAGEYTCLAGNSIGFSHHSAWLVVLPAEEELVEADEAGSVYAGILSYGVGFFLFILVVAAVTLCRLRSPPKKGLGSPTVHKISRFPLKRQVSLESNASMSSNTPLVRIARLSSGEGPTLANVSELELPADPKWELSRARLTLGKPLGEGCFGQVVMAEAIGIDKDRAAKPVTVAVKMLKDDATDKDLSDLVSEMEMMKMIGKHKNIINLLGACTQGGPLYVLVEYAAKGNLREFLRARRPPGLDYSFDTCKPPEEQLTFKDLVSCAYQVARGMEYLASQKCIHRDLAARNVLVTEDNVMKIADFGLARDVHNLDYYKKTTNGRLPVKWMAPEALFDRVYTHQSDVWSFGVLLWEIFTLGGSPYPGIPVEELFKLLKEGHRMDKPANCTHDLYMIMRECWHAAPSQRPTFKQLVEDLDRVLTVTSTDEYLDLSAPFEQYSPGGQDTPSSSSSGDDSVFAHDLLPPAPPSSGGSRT
Experimental: as §1

[4] = system: RT4 (FGFR3); assay: Cellular proliferation assay (CellTiter-Glo), RT4; assay type: cell-based; conditions: Homo sapiens, RT-4, RT4 cells, 72 hours
Experimental: (§2) Compounds were tested proliferation assay in SNU-16, KATO-III, SNU-1, AGS, AN3CA, MFE280, MKN45, KLE, RT112-84, RT4, T24, UM-UC-3, KMS11, OPM-2, RAPI8226, U266, SUM 52PE, MCF7 and BaF3 cell lines. Test compounds were prepared in 10 mM DMSO stock solutions, add […] 1000× stock solution to 98 μL growth medium to get […] final concentration, 3-fold 9-points dilution was performed. Cell lines suspension of 95 μL were seeded into 96-well plate and incubated at 37° C. for 24 hours, add 5 μL 20× compounds solutions to 96-well plate according to the plate map with Echo550 liquid handler. Final DMSO concentration in each well is 0.1%, cell lines were incubated at 37° C. for 72 hours, then equilibrate the assay plate to room temperature before measurement, add 50 μL of CellTiter-Glo® Reagent into each well, mix contents for 2 minutes on an orbital shaker to induce cell lysis and incubate at room temperature for 10 minutes to stabilize luminescent signal, Chemiluminescence was then read on an EnVision reader. Inhibition Rate (Inh. %) was calculated relative to vehicle (DMSO) treated control wells using following formula: Inhibition Rate (Inh %)=100−(RLU compound−RLU blank)/(RLU control−RLU blank)*100%, Data were analyzed using Graphpad Prism 7.0, fitting to a 4-parameter equation to generate concentration response curves.

[5] = system: SNU-16 (FGFR2); assay: Cellular proliferation assay (CellTiter-Glo), SNU-16; assay type: cell-based; conditions: Homo sapiens, SNU-16 cells, 72 hours
Experimental: as §2

[6] = enzyme pre-incubation 10 minutes (for Example 1)

T1 sequence (P11362 22-822): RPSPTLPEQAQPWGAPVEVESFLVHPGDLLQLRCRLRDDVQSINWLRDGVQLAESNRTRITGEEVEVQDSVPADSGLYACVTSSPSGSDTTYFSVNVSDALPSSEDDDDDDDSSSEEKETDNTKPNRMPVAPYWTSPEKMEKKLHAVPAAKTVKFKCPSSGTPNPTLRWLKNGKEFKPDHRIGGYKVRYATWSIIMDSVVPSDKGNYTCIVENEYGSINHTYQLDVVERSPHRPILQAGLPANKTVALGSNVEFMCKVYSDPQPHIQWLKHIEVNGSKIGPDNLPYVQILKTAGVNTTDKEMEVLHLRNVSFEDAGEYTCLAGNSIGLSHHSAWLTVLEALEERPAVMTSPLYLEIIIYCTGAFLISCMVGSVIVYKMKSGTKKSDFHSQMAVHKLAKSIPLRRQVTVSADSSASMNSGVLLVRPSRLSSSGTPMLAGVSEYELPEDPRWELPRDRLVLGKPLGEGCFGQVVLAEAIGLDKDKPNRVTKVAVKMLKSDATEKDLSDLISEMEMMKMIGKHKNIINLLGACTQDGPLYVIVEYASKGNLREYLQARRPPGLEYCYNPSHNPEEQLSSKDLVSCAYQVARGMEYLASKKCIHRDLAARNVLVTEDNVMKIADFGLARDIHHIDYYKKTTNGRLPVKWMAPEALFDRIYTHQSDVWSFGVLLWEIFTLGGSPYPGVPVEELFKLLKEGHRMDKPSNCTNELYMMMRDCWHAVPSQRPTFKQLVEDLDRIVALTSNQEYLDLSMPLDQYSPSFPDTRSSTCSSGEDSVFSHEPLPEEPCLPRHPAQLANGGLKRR

Structure (SMILES) | IC50 [1, 6] | IC50 [2, 6] | IC50 [3, 6] | IC50 ([1]; enzyme pre-incubation 60 min) | IC50 [4] | IC50 ([2]; enzyme pre-incubation 60 min) | IC50 [5] | IC50 ([3]; enzyme pre-incubation 60 min)
C=CC(=O)Nc1ccc(-c2c(-c3ccc(Oc4cccc(C)n4)cc3)c(C(N)=O)n3cccnc23)cc1 [Example 1] | 100 to 1000 nM | < 10 nM | 10 to 100 nM | – | – | – | – | –
C=C(F)C(=O)Nc1ccc(-c2c(-c3ccc(Oc4nccc(C)n4)c(F)c3)c(C(N)=O)n3cc(C)cnc23)cc1 [Example 2] | – | – | – | 100 to 1000 nM | 10 to 100 nM | < 10 nM | < 10 nM | 10 to 100 nM
C=C(F)C(=O)Nc1ccc(-c2c(-c3ccc(Oc4nccc(C)n4)c(F)c3)c(C(N)=O)n3cc(C)ncc23)cc1 [Example 3] | – | – | – | 100 to 1000 nM | 10 to 100 nM | < 10 nM | < 10 nM | 10 to 100 nM
C=C(F)C(=O)Nc1ccc(-c2c(-c3ccc(Oc4nccc(C)n4)c(F)c3)c(C(N)=O)n3ccc(C)nc23)cc1 [Example 4] | – | – | – | 100 to 1000 nM | 100 to 1000 nM | 10 to 100 nM | 10 to 100 nM | 100 to 1000 nM
C=C(F)C(=O)Nc1ccc(-c2c(-c3ccc(Oc4nccc(C)n4)c(F)c3)c(C(N)=O)n3cc(C4CC4)cnc23)cc1 [Example 5] | – | – | – | 100 to 1000 nM | 10 to 100 nM | 10 to 100 nM | 10 to 100 nM | 10 to 100 nM
C=C(F)C(=O)Nc1ccc(-c2c(-c3ccc(Oc4nccc(C)n4)cc3)c(C(N)=O)n3cc(N4CCN(C)CC4)cnc23)cc1 [Example 6] | – | – | – | 100 to 1000 nM | – | < 10 nM | – | 10 to 100 nM
C=C(F)C(=O)Nc1ccc(-c2c(-c3ccc(Oc4nccc(C)n4)c(F)c3)c(C(N)=O)n3cc(CC)cnc23)cc1 [Example 7] | – | – | – | > 1000 nM | 10 to 100 nM | < 10 nM | – | 100 to 1000 nM
C=C(F)C(=O)Nc1ccc(-c2c(-c3ccc(Oc4nccc(C)n4)c(F)c3)c(C(N)=O)n3cc(N4CCOCC4)cnc23)cc1 [Example 8] | – | – | – | > 1000 nM | 10 to 100 nM | < 10 nM | < 10 nM | 10 to 100 nM
C=C(F)C(=O)Nc1ccc(-c2c(-c3ccc(Oc4nccc(C)n4)c(F)c3)c(C(N)=O)n3cc(-c4cnn(C)c4)cnc23)cc1 [Example 9] | – | – | – | 100 to 1000 nM | – | < 10 nM | – | 100 to 1000 nM
C=C(F)C(=O)Nc1ccc(-c2c(-c3ccc(Oc4nccc(C)n4)c(F)c3)c(C(N)=O)n3cc(C#CC)cnc23)cc1 [Example 10] | – | – | – | 100 to 1000 nM | – | 10 to 100 nM | – | 100 to 1000 nM
C=C(F)C(=O)Nc1ccc(-c2c(-c3ccc(Oc4nccc(C)n4)c(F)c3)c(C(N)=O)n3cccnc23)cc1 [Example 11] | – | – | – | 100 to 1000 nM | – | < 10 nM | – | 10 to 100 nM
C=C(F)C(=O)Nc1ccc(-c2c(-c3ccc(Oc4nccc(C)n4)c(F)c3)c(C(N)=O)n3ccccc23)cc1 [Example 12] | – | – | – | 100 to 1000 nM | – | < 10 nM | – | 10 to 100 nM
CC#CC(=O)Nc1ccc(-c2c(-c3ccc(Oc4nccc(C)n4)c(F)c3)c(C(N)=O)n3cc(C)cnc23)cc1 [Example 13] | – | – | – | 100 to 1000 nM | 10 to 100 nM | < 10 nM | < 10 nM | 10 to 100 nM
Cc1cnc2c(-c3ccc(NC(=O)/C=C/CN(C)C)cc3)c(-c3ccc(Oc4nccc(C)n4)c(F)c3)c(C(N)=O)n2c1 [Example 14] | – | – | – | 100 to 1000 nM | 10 to 100 nM | < 10 nM | < 10 nM | 10 to 100 nM
C=C(F)C(=O)Nc1ccc(-c2c(-c3ccc(Oc4nccc(C)n4)cc3Cl)c(C(N)=O)n3cc(C)cnc23)cc1 [Example 15] | – | – | – | > 1000 nM | – | 100 to 1000 nM | – | 100 to 1000 nM
C=C(F)C(=O)Nc1ccc(-c2c(-c3ccc(Oc4nccc(C)n4)c(F)c3)c(C(N)=O)n3cc(Cl)cnc23)cc1 [Example 16] | – | – | – | 100 to 1000 nM | – | 10 to 100 nM | – | 100 to 1000 nM
C=C(F)C(=O)N1CCc2cc(-c3c(-c4ccc(Oc5nccc(C)n5)c(F)c4)c(C(N)=O)n4cc(C)cnc34)ccc21 [Example 17] | – | – | – | 100 to 1000 nM | 10 to 100 nM | < 10 nM | < 10 nM | < 10 nM
C=C(F)C(=O)Nc1ccc(-c2c(-c3ccc(Oc4nccc(C)n4)c(F)c3)c(C(N)=O)n3cc(C)cnc23)c(F)c1 [Example 18] | – | – | – | 10 to 100 nM | – | < 10 nM | – | < 10 nM
C=C(C)C(=O)Nc1ccc(-c2c(-c3ccc(Oc4nccc(C)n4)c(F)c3)c(C(N)=O)n3cc(C)cnc23)c(F)c1 [Example 19] | – | – | – | > 1000 nM | – | 10 to 100 nM | – | 100 to 1000 nM
C=C(F)C(=O)Nc1ccc(-c2c(-c3ccc(Oc4nccc(C)n4)cc3)c(C(N)=O)n3cc(C)cnc23)cc1 [Example 20] | – | – | – | 100 to 1000 nM | 10 to 100 nM | < 10 nM | < 10 nM | 10 to 100 nM
Cc1cnc2c(-c3ccc(NC(=O)/C(F)=C/CN(C)C)cc3)c(-c3ccc(Oc4nccc(C)n4)c(F)c3)c(C(N)=O)n2c1 [Example 21] | – | – | – | > 1000 nM | – | 10 to 100 nM | – | 10 to 100 nM
Cc1cnc2c(-c3ccc(NC(=O)/C=C/CNC4COC4)cc3)c(-c3ccc(Oc4nccc(C)n4)c(F)c3)c(C(N)=O)n2c1 [Example 22] | – | – | – | 100 to 1000 nM | 10 to 100 nM | < 10 nM | < 10 nM | 10 to 100 nM
Cc1cnc2c(-c3ccc(NC(=O)/C=C/CN4CC(O)C4)cc3)c(-c3ccc(Oc4nccc(C)n4)c(F)c3)c(C(N)=O)n2c1 [Example 23] | – | – | – | 10 to 100 nM | 100 to 1000 nM | < 10 nM | 10 to 100 nM | < 10 nM
